Test results from US11572398B2, “GLP-1 derivatives and uses thereof” (Novo Nordisk A/S, priority 2014, dated 2023).
pEC50, pIC50: −log10 of the molar value. Like-named read-outs stand apart in the source and are kept apart here.

Experiments:
human GLP-1 receptor [1] = target: T1, human GLP-1 receptor (Homo sapiens, UniProt P43220); test: GLP-1 receptor binding: competitive binding assay (125I-GLP-1, SPA) on isolated membranes at low and high HSA
T1 construct: expressed in transfected cells; host or cells: BHK cells (parent line BHKTS13), clone FCW467-12A; membrane preparation
T1 sequence (P43220 24-463): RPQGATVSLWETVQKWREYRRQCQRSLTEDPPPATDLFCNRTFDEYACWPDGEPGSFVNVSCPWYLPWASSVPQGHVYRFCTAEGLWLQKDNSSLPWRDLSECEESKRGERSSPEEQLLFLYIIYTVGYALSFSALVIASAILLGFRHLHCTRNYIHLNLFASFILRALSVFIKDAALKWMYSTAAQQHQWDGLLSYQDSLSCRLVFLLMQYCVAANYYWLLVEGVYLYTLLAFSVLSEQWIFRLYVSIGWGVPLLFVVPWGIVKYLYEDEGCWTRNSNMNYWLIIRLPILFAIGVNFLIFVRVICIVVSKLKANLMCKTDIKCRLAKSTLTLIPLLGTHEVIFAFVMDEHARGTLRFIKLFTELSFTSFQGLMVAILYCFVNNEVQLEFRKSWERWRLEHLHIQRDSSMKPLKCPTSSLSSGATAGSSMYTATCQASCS
Method: The purpose of this example is to test the receptor binding of the GLP-1 derivatives in vitro. The receptor binding is a measure of affinity of a derivative for the human GLP-1 receptor.
Each derivative is added in a series of concentrations to isolated membranes containing the human GLP-1 receptor and displacement of the labelled ligand is monitored. The receptor binding is reported as the concentration at which half of the labelled ligand is displaced from the receptor, the IC50 value.
Buffer 1 consisted of 20 mM Na-HEPES plus 10 mM EDTA and pH was adjusted to 7.4. Buffer 2 consisted of 20 mM Na-HEPES plus 0.1 mM EDTA and pH was adjusted to 7.4. Assay buffer consisted of 50 mM HEPES supplemented with 5 mM EGTA, 5 mM MgCl2, 0.005% Tween 20 and pH was adjusted to 7.4. An 8% albumin stock consisted of HSA dissolved at 8% (w/v) in assay buffer. An 0.02% albumin stock consisted of HSA dissolved at 0.02% (w/v) in assay buffer.
The cells express the human GLP-1 receptor.
The cells were grown at 5% CO2 in DMEM, 10% fetal calf serum, 1% Pen/Strep (Penicillin/Streptomycin) and 1.0 mg/ml of the selection marker G418. To make a membrane preparation the cells were grown to approximately 80% confluence. The cells were washed twice in phosphate-buffered saline and harvested. The cells were pelleted using a brief centrifugation and the cell pellet was kept on ice. […] The homogenate was centrifuged for 15 minutes. The pellet was re-suspended (homogenised) in 10 ml buffer 2 and centrifuged. This step was repeated once more. The resulting pellet was re-suspended in buffer 2 and the protein concentration was determined. The membranes were aliquoted and stored at minus 80° C.
1. […] Assay continued with step 3.
2. For the receptor binding assay in the presence of high HSA (2%) 50 μl of the 8% albumin stock was added to each well of an assay plate. Assay continued with step 3.
4. Cell membrane aliquots were thawed and diluted to their working concentration. Fifty μl were added to each well in the assay plate.
5. WGA SPA beads were suspended in assay buffer at 20 mg/ml. The suspension was diluted to 10 mg/ml in assay buffer just prior to addition to the assay plate. Fifty μl were added to each well in the assay plate.
6. […] A 25 μl aliquot was reserved for measuring total counts/well.
7. The assay plate was incubated for 2 h at 30° C.
8. The assay plate was centrifuged for 10 min.
9. The assay plate was read in a Packard TopCount NXT instrument.
The data from the TopCount instrument were transferred to GraphPad Prism software. Individual replicates were analysed using non-linear regression. IC50 values were calculated by the software and reported in nM. The reported values are averages of all of the measured values for each compound.

human GLP-1 receptor [2] = target: T1, human GLP-1 receptor; test: In vitro potency: CRE luciferase reporter gene assay in BHK cells expressing the human GLP-1 receptor; format: cell-based
Method: The purpose of this example is to test the activity, or potency, of the GLP-1 derivatives in vitro. The in vitro potency is the measure of human GLP-1 receptor activation in a whole cell assay.
In vitro potency was determined by measuring the response of the human GLP-1 receptor in a reporter gene assay. The assay was performed in a stably transfected BHK cell line that expresses the human GLP-1 receptor and contains the DNA for the cAMP response element (CRE) coupled to a promoter and the gene for firefly luciferase (CRE luciferase). When the human GLP-1 receptor is activated it results in the production of cAMP, which in turn results in the luciferase protein being expressed. When assay incubation is completed the luciferase substrate (luciferin) is added and the enzyme converts luciferin to oxyluciferin to produce bioluminescence. The luminescence is measured as the readout for the assay.
The cells were cultured at 5% CO2 in cell culture medium. They were aliquoted and stored in liquid nitrogen. Before each assay an aliquot was taken up and washed twice in PBS before being suspended at the desired concentration in the assay specific buffer.
The assay buffer consisted of 2% ovalbumin and 0.2% Pluronic F-68 in assay medium.
1) Cell stocks were thawed in a 37° C. water bath.
2) Cells were washed three times in PBS.
3) Cells were counted and adjusted to 5×10^3 cells/50 μl (1×10^5 cells/ml) in assay medium. A 50 μl aliquot of cells was transferred to each well in the assay plate.
4) Stocks of the test compounds and reference compounds were diluted to a concentration of 0.2 μM in assay buffer. […] 8) A 100 μl aliquot of steadylite plus reagent was added to each well of the assay plate. 9) Each assay plate was covered with aluminum foil to protect it from light and shaken for 30 min at room temperature. 10) Each assay plate was read in a BioTek Synergy 2 Multi-Mode Reader. Calculations and Results
The data from the BioTek Synergy 2 Multi-Mode Reader were transferred to GraphPad Prism software. The software performs a non-linear regression (log(agonist) vs response (three parameters)).
A minimum of two replicates were measured for each sample. The reported EC50 values are averages of all of the measured values for each compound.

[3] = whole cell reporter gene assay, BHK cells, human GLP-1 receptor, average of at least two replicates, read-out: EC50
[4] = Low HSA IC50, low HSA (max. 0.001% final assay concentration)

Row | Compound | pIC50 (human GLP-1 receptor [1]; low HSA (max. 0.001% final assay concentration), read-out: Low HSA IC50) | pEC50 (human GLP-1 receptor [2]; [3]) | pIC50 (human GLP-1 receptor [1]; High HSA IC50, high HSA (2.0% final assay concentration)) | pIC50 (human GLP-1 receptor [1]; [4]) | pEC50 (human GLP-1 receptor [2]) | pIC50 (human GLP-1 receptor [1]; high HSA (2.0% final assay concentration), read-out: High HSA IC50)
1 | CC[C@H](C)[C@H](NC(=O)[C@H](Cc1ccccc1)NC(=O)[C@H](CCC(=O)O)NC(=O)[C@H](CCCNC(=N)N)NC(=O)[C@H](C)NC(=O)[C@H](C)NC(=O)[C@H](CCC(N)=O)NC(=O)[C@H](CCC(=O)O)NC(=O)[C@H](CCC(=O)O)NC(=O)[C@H](CC(C)C)NC(=O)[C@H](Cc1ccc(O)cc1)NC(=O)[C@H](CO)NC(=O)[C@H](CO)NC(=O)[C@@H](NC(=O)[C@H](CC(=O)O)NC(=O)[C@H](CO)NC(=O)[C@@H](NC(=O)[C@H](Cc1ccccc1)NC(=O)[C@@H](NC(=O)CNC(=O)[C@H](CCC(=O)O)NC(=O)C(C)(C)NC(=O)[C@@H](N)Cc1c[nH]cn1)[C@@H](C)O)[C@@H](C)O)C(C)C)C(=O)N[C@@H](C)C(=O)N[C@@H](Cc1c[nH]c2ccccc12)C(=O)N[C@@H](CC(C)C)C(=O)N[C@H](C(=O)N[C@@H](CCCNC(=N)N)C(=O)NCC(=O)N[C@@H](CCCNC(=N)N)C(=O)N[C@@H](CCCCNC(=O)CN(CCCNC(=O)COCCOCCNC(=O)COCCOCCNC(=O)COCCOCCNC(=O)COCCOCCNC(=O)[C@@H](N)CCCCNC(=O)[C@@H](N)CCCCNC(=O)CCCNC(=O)CCCCCCCCCCCCCCCS(=O)(=O)O)CCCNC(=O)COCCOCCNC(=O)COCCOCCNC(=O)COCCOCCNC(=O)COCCOCCNC(=O)[C@@H](N)CCCCNC(=O)[C@@H](N)CCCCNC(=O)CCCNC(=O)CCCCCCCCCCCCCCCS(=O)(=O)O)C(=O)O)C(C)C [Example 14, N{Epsilon-37}-[2-[bis[3-[[2-[2-[2-[[2-[2-[2-[[2-[2-[2-[[2-[2-[2-[[(2S)-2-amino-6-[[(2S)-2-amino-6-[4-(16-sulfohexadecanoylamino)butanoylamino]hexanoyl]amino]hexanoyl]amino]ethoxy]ethoxy]acetyl]amino]ethoxy]ethoxy]acetyl]amino]ethoxy]ethoxy]acetyl]amino]ethoxy]ethoxy]acetyl]amino]propyl]amino]acetyl]-[Aib8,Glu22,Arg26,Arg34,Lys37]-GLP-1-(7-37)-peptide] | 10.40 | 11.20 | – | – | – | –
2 | CC[C@H](C)[C@H](NC(=O)[C@H](Cc1ccccc1)NC(=O)[C@H](CCC(=O)O)NC(=O)[C@H](CCCNC(=N)N)NC(=O)[C@H](C)NC(=O)[C@H](C)NC(=O)[C@H](CCC(N)=O)NC(=O)[C@H](CCC(=O)O)NC(=O)[C@H](CCC(=O)O)NC(=O)[C@H](CC(C)C)NC(=O)[C@H](Cc1ccc(O)cc1)NC(=O)[C@H](CO)NC(=O)[C@H](CO)NC(=O)[C@@H](NC(=O)[C@H](CC(=O)O)NC(=O)[C@H](CO)NC(=O)[C@@H](NC(=O)[C@H](Cc1ccccc1)NC(=O)[C@@H](NC(=O)CNC(=O)[C@H](CCC(=O)O)NC(=O)C(C)(C)NC(=O)[C@@H](N)Cc1c[nH]cn1)[C@@H](C)O)[C@@H](C)O)C(C)C)C(=O)N[C@@H](C)C(=O)N[C@@H](Cc1c[nH]c2ccccc12)C(=O)N[C@@H](CC(C)C)C(=O)N[C@H](C(=O)N[C@@H](CCCNC(=N)N)C(=O)NCC(=O)N[C@@H](CCCNC(=N)N)C(=O)N[C@@H](CCCCNC(=O)CN(CCCNC(=O)COCCOCCNC(=O)COCCOCCNC(=O)COCCOCCNC(=O)COCCOCCNC(=O)COCCOCCNC(=O)COCCOCCNC(=O)CC[C@H](NC(=O)[C@H]1CC[C@H](CNC(=O)CCCNC(=O)CCCCCCCCCCCCCCCS(=O)(=O)O)CC1)C(=O)O)CCCNC(=O)COCCOCCNC(=O)COCCOCCNC(=O)COCCOCCNC(=O)COCCOCCNC(=O)COCCOCCNC(=O)COCCOCCNC(=O)CC[C@H](NC(=O)[C@H]1CC[C@H](CNC(=O)CCCNC(=O)CCCCCCCCCCCCCCCS(=O)(=O)O)CC1)C(=O)O)C(=O)O)C(C)C [Example 21] | – | – | 7.80 | 9.89 | 11.82 | –
3 | CC[C@H](C)[C@H](NC(=O)[C@H](Cc1ccccc1)NC(=O)[C@H](CCC(=O)O)NC(=O)[C@H](CCCNC(=N)N)NC(=O)[C@H](C)NC(=O)[C@H](C)NC(=O)[C@H](CCC(N)=O)NC(=O)[C@H](CCC(=O)O)NC(=O)[C@H](CCC(=O)O)NC(=O)[C@H](CC(C)C)NC(=O)[C@H](Cc1ccc(O)cc1)NC(=O)[C@H](CO)NC(=O)[C@H](CO)NC(=O)[C@@H](NC(=O)[C@H](CC(=O)O)NC(=O)[C@H](CO)NC(=O)[C@@H](NC(=O)[C@H](Cc1ccccc1)NC(=O)[C@@H](NC(=O)CNC(=O)[C@H](CCC(=O)O)NC(=O)C(C)(C)NC(=O)[C@@H](N)Cc1c[nH]cn1)[C@@H](C)O)[C@@H](C)O)C(C)C)C(=O)N[C@@H](C)C(=O)N[C@@H](Cc1c[nH]c2ccccc12)C(=O)N[C@@H](CC(C)C)C(=O)N[C@H](C(=O)N[C@@H](CCCNC(=N)N)C(=O)NCC(=O)N[C@@H](CCCNC(=N)N)C(=O)N[C@@H](CCCCNC(=O)CN(CCCNC(=O)COCCOCCNC(=O)COCCOCCNC(=O)COCCOCCNC(=O)COCCOCCNC(=O)COCCOCCNC(=O)COCCOCCNC(=O)CC[C@H](NC(=O)[C@H]1CC[C@H](CNC(=O)CCCCCCCCCCCCCCCS(=O)(=O)O)CC1)C(=O)O)CCCNC(=O)COCCOCCNC(=O)COCCOCCNC(=O)COCCOCCNC(=O)COCCOCCNC(=O)COCCOCCNC(=O)COCCOCCNC(=O)CC[C@H](NC(=O)[C@H]1CC[C@H](CNC(=O)CCCCCCCCCCCCCCCS(=O)(=O)O)CC1)C(=O)O)C(=O)O)C(C)C [Example 24] | – | 11.74 | – | 9.80 | – | 7.49
